Measurements from patent US12667574B2, “Paraxanthine-based bioactive composition and method of use thereof” (PX ING, LLC, priority 2021, dated 2026).

Experiments:
male Swiss Albino mice = assay: Treadmill endurance test (Example 2)
Experimental: Thirty-six 8-week-old male Swiss Albino mice were housed in an animal room at a constant temperature (22±3° C.) and humidity (30%-70%) under a 12:12 h light-dark cycle with standard laboratory diet (Purina 5L79, Rat and Mouse 18% protein; PMI Nutrition International, Brentwood, MO, USA). Distilled water was provided ad libitum. All animal experiments were reviewed and approved by the Institutional Animal Ethical Committee (IAEC) of Radiant Research Services Pvt. Ltd (Bangalore, India). All research was conducted in accordance with the guidelines of the committee for the purpose of control and supervision of experiments on animals.
The dose administered to the mice was calculated using US Food and Drug Administration for human equivalence doses (HED), assuming a human weight of 60 kg. […] 0.5% Carboxy Methyl Cellulose sodium was used as vehicle and the test item formulations were prepared daily. Dosing was conducted via oral gavage using disposable polypropylene syringes with sterilized stainless steel gavage tubes. The food intake and water consumption were monitored daily, and BW was recorded weekly. The last dose on day 28 was given 1 hour prior to testing.
During the treatment period, exercise training was completed using a motorized treadmill (Exer 3/6, Columbus Instruments international, OH, USA) at a moderate intensity of 20 cm/sec as maximal running speed, an incline of ten degrees and a shock intensity of 0.2 mA, for ten minutes. The speed of the treadmill was manually adjusted by increasing the belt speed by 5 cm/sec every two minutes throughout the total duration of ten minutes. All animals were adapted to this procedure daily 60 minutes after dosing for five days in a week during the treatment period.
On 28th day of each respective treatment, all animals were subjected to a muscle endurance test. Muscle endurance was accomplished on a motorized treadmill at a low to moderate intensity of 5-50 cm/sec as maximal running speed, an incline of ten degrees and a shock intensity of 0.2 mA, with the belt speed being increased by 5 cm/sec every two minutes until it reaches 50 cm/sec. Animals were subjected to the treadmill test until exhaustion. Distance traveled (cm) was measured as a marker of exercise performance, energy, and endurance.

dopamine (dopa) = assay: Dopamine concentration (Example 3); type: in vivo, rats; conditions: for dopamine (dopa) concentration: oral 14 days
Experimental: (§1) Distilled water was provided ad libitum. […] Ltd (Bangalore, India).
(§2) 0.5% Carboxy Methyl Cellulose sodium was used as vehicle and the test item formulations were prepared daily. […] The last dose on day 14 was given 1 hour prior to testing.

glutathione (GSH) [1] = assay: Glutathione level (second Example 4); type: in vivo, rats; conditions: for glutathione (GSH) level: oral 14 days
Experimental: as §1
The following HED were used in this study: 50 mg paraxanthine, (ENFINITY™, Ingenious Ingredients, L.P Lewisville, TX, USA; rat dose: 5.141 mg/kg bw/day); 25 mg L-Theanine (rat dose: 2.570 mg/kg bw), and 50 mg paraxanthine plus 25 mg L-Theanine. 0.5% Carboxy Methyl Cellulose sodium was used as vehicle and the test item formulations were prepared daily. […] The last dose on day 14 was given 1 hour prior to testing.

glutathione (GSH) [2] = assay: Glutathione level (Example 3); type: in vivo, rats; conditions: for glutathione (GSH) level: oral 14 days
Experimental: as §1, §2

[3] = tested on: male Swiss Albino Wistar rats; assay: Walter Morris Maze test (Example 3); type: in vivo; conditions: for escape latency: oral 14 days
Experimental: Distilled water was provided ad libitum. […] Ltd (Bangalore, India). […] The last dose on day 14 was given 1 hour prior to testing. The Walter Morris Maze test consisted of a circular pool in a room with geometric shapes on the wall serving as spatial cues. The pool, which is 70 cm in diameter and painted with black color, filled with 13 cm depth of 25±1° C. water. A platform (6 cm diameter) was placed into one quadrant of the pool and submerged 1 cm below the water surface. For the training, all rats were trained to locate the submerged platform in constant location. The training day consisted of four trials. […] The rat was allowed to remain on the platform for 15 seconds before being dried off and later was transferred to a holding cage.

[4] = tested on: brain derived neuro factor, BDNF; assay: BDNF level, neuroplasticity (Example 3); type: in vivo, rats; conditions: old rats
Experimental: as §1, §2

Compound: Cn1c(=O)[nH]c2ncn(C)c2c1=O [paraxanthine, 1,7-Dimethyl-3H-purine-2,6-dione]
- increase of distance travelled compared to alpha-GPC (male Swiss Albino mice; compared to alpha-GPC alone): 4.4%
- increase of distance travelled compared to control (male Swiss Albino mice; compared to control (placebo)): 81%
- increase of distance travelled compared to theobromine (male Swiss Albino mice; compared to theobromine): 6.3%
- increase of distance travelled compared to theophylline (male Swiss Albino mice; compared to theophylline): 9.9%
- exercise performance, energy, and endurance (in words) (male Swiss Albino mice; oral 28 days): significant improvements of exercise performance, energy, and endurance
- dopamine (dopa) concentration (dopamine (dopa); old rats): 516.85 ± 4.43 ng/L
- increase in dopa compared to alpha-GPC (dopamine (dopa); old rats): 2.1%
- increase in dopa compared to placebo (dopamine (dopa); old rats): 32.7%
- increase in dopa compared to theobromine (dopamine (dopa); old rats): 2.8%
- increase in dopa compared to theophylline (dopamine (dopa); old rats): 4.2%
- dopamine (dopa) concentration (dopamine (dopa); young rats): 580.22 ± 5.33 ng/L
- increase in dopa compared to alpha-GPC (dopamine (dopa); young rats): 3.0%
- increase in dopa compared to placebo (dopamine (dopa); young rats): 23.7%
- increase in dopa compared to theobromine (dopamine (dopa); young rats): 5.0%
- increase in dopa compared to theophylline (dopamine (dopa); young rats): 6.7%
- glutathione (GSH) level (glutathione (GSH) [1]; old rats): 25.57 ± 0.80 µg/mL
- increase in GSH compared to L-Theanine (glutathione (GSH) [1]; old rats): 7.1%
- increase in GSH compared to placebo (glutathione (GSH) [1]; old rats): 62.1%
- glutathione (GSH) level (glutathione (GSH) [1]; young rats): 32.57 ± 0.84 µg/mL
- increase in GSH compared to L-Theanine (glutathione (GSH) [1]; young rats): 2.6%
- increase in GSH compared to placebo (glutathione (GSH) [1]; young rats): 64.1%
- glutathione (GSH) level (glutathione (GSH) [2]; old rats): 25.57 ± 0.80 µg/mL
- increase in GSH compared to alpha-GPC (glutathione (GSH) [2]; old rats): 3.4%
- increase in GSH compared to placebo (glutathione (GSH) [2]; old rats): 62.1%
- increase in GSH compared to theobromine (glutathione (GSH) [2]; old rats): 4.2%
- increase in GSH compared to theophylline (glutathione (GSH) [2]; old rats): 5.5%
- glutathione (GSH) level (glutathione (GSH) [2]; young rats): 32.57 ± 0.84 µg/mL
- increase in GSH compared to alpha-GPC (glutathione (GSH) [2]; young rats): 2.6%
- increase in GSH compared to placebo (glutathione (GSH) [2]; young rats): 64.1%
- increase in GSH compared to theobromine (glutathione (GSH) [2]; young rats): 3.9%
- increase in GSH compared to theophylline (glutathione (GSH) [2]; young rats): 9.4%
- escape latency ([3]; old rats (16-month-old)): 39.00 ± 1.90 s
- decrease of escape latency compared to alpha-GPC ([3]; old rats): 2.1%
- decrease of escape latency compared to control ([3]; old rats): 33.7%
- decrease of escape latency compared to theobromine ([3]; old rats): 7.9%
- decrease of escape latency compared to theophylline ([3]; old rats): 11.0%
- escape latency ([3]; young rats (8-week-old)): 32.50 ± 1.38 s
- decrease of escape latency compared to alpha-GPC ([3]; young rats): 6.7%
- decrease of escape latency compared to control ([3]; young rats): 40%
- decrease of escape latency compared to theobromine ([3]; young rats): 13.7%
- decrease of escape latency compared to theophylline ([3]; young rats): 14.5%
- BDNF ([4]; oral 14 days): 842.68 ± 6.26 pg/mL
- increase in BDNF compared to alpha-GPC ([4]; compared to alpha-GPC): 1.5%
- increase in BDNF compared to placebo ([4]; compared to placebo): 18.1%
